Values of other authors, collected in patent US6086864A, “Pharmaceutical formulations comprising polythiourea and methods of use thereof” (Merrell Pharmaceuticals Inc., priority 1997, dated 2000).

What was measured:
[1] = in vivo
[2] = system: viral protein responsible for cell recognition; conditions: purified form of heparin

Substance: heparin
- side effects [1]: hemorrhage and increased clot formation time as well as thrombocytopenia
- inhibition of host cell infection [2]: limited inhibition of host cell infection
